The source of these data is patent US8426408B2, “Pyrimidine inhibitors of kinases” (AbbVie Inc., priority 2009, dated 2013).

pIC50, pKi: −log10 of the molar value.

The target of one experiment is T1, Aurora A (Homo sapiens, UniProt O14965).
T1 sequence (O14965 1-403): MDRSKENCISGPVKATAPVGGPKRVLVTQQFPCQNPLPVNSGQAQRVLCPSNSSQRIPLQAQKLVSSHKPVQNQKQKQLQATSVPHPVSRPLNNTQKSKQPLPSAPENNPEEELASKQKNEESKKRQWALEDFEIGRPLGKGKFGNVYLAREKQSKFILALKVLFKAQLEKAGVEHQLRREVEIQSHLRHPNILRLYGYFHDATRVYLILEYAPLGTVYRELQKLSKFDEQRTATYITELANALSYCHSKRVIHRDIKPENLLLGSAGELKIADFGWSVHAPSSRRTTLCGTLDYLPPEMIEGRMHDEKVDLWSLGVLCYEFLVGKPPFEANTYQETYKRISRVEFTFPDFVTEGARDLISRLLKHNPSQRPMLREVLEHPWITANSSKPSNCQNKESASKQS
Put plainly: Aurora A enzyme inhibition (time-resolved fluorescence, STK substrate-2). Conditions: 1 mM ATP. In kind it is biochemical. In a few lines:
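Phosphorylation of biotinylated STK substrate-2 at 1 mM ATP, 1 h, Hepes buffer pH 7.4 (MgCl2, sodium orthovanadate, Triton X-100). After EDTA quench, 665/615 nm time-resolved fluorescence ratio read via europium anti-phospho antibody and SA-XL665; IC50 from exponential fit versus inhibitor concentration.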

Another experiment has as its target T2, Aurora B (Homo sapiens, UniProt Q96GD4).
T2 construct: Active Aurora B enzyme (recombinant residues 1-344)
Description: Aurora B enzyme inhibition (time-resolved fluorescence, histone H3 peptide). The following applies: 1 mM ATP. It counts as biochemical. In a few lines:
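IC50s came from an exponential fit of inhibition against inhibitor concentration, with phosphorylation read as the 665/615 nm time-resolved fluorescence ratio after EDTA stop using Eu-anti-phospho-H3 and SA-APC. The 1 h reaction used Aurora B 1-344 plus GST-INCENP, biotin-histone H3 1-21 peptide and 1 mM ATP in pH 7.4 HEPES buffer.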

The next experiment has as its system NCI-H1299 cells. Put plainly: Induction of polyploidy in H1299. It counts as cell-based, Human. The following applies: NCI-H1299, 48 hours. On the procedure:
To determine the induction of polyploidy in H1299 cells, NCI-H1299 were seeded (4K/well) into 96-well culture plates (tissue culture grade, black, flat-clear bottom) and incubated overnight to produce cell-to-plate adherence. Inhibitors at varying concentrations were added into duplicate wells containing cells and culture media (RPMI 1640, 10% fetal calf serum) and incubated at 37 C for 48 hours. The plates were then washed with PBS and the adherent cells fixed by incubating with 3% formalin for 1 hour. After washing four times with PBS, the cells were then stained with Hoechst and subjected to fluorescent (360 i/460e) microscopic high content analysis to determine the effect of inhibitors on nuclear size. Polyploid cells (≧4N) were defined as those having nuclear area>750μ^2. Potency was expressed as the concentration of inhibitor necessary to induce polyploidy in 15% of cells (EC15) and was calculated from least squares analysis of the log dose-response.

The target in experiment [1] is T3, KDR (Homo sapiens, UniProt P35968). Put plainly: KDR HTRF in vitro kinase assay. In kind it is biochemical. Also on record: purified enzyme (His6-KDR 789-1354, MW 63 kD); His6 (N). The following applies: 1 mM ATP; read-out: KDR enzyme inhibition data (Ki). In a few lines: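 His6-KDR 789-1354 (7 ng/well) with 0.5 μM biotinylated peptide substrate and 1 mM ATP in HEPES pH 7.1, MgCl2/MnCl2, 60 min at room temperature. EDTA-quenched, detected by streptavidin-XL-665 plus Eu-kryptate anti-phosphotyrosine HTRF after 3 h; IC50 from 620/665 nm ratio.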
Target sequence in this assay (P35968 789-1354): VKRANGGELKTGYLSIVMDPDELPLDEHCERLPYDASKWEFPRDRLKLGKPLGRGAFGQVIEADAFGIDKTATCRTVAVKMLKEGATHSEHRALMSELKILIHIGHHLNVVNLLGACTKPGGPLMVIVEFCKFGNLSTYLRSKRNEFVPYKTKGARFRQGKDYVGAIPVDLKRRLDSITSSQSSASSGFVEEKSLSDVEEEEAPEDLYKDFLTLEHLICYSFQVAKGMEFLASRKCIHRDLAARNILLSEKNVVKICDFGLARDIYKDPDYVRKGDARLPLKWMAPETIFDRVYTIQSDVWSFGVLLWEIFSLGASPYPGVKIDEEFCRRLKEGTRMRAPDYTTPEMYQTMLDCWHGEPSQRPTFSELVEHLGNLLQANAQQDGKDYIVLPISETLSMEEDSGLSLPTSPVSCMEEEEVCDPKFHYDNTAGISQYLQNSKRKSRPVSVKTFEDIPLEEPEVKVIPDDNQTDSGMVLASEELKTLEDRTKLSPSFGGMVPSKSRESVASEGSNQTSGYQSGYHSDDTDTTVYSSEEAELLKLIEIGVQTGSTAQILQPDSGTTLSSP

Experiment [2] has as its target T3, KDR. Description: KDR cellular assay (KDR receptor phosphorylation ELISA). It counts as cell-based. Also on record: expressed in transfected cells; host or cells: 3T3 (embryonic mouse) cells. Conditions: KDR transfected 3T3 (embryonic mouse) cells, VEGF stimulated; read-out: IC50 inhibition of KDR phosphorylation. In a few lines: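 Phospho-KDR measured by capture ELISA (anti-KDR coat, biotinylated detection, streptavidin-HRP, 450 nm) in lysates of KDR-expressing 3T3 mouse fibroblasts. Cells saw compound 20 min at 37° C before 10 min VEGF challenge (100 ng/ml solution); IC50 from non-linear regression of half-log dose series.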
Target sequence in this assay (P35968 20-1356): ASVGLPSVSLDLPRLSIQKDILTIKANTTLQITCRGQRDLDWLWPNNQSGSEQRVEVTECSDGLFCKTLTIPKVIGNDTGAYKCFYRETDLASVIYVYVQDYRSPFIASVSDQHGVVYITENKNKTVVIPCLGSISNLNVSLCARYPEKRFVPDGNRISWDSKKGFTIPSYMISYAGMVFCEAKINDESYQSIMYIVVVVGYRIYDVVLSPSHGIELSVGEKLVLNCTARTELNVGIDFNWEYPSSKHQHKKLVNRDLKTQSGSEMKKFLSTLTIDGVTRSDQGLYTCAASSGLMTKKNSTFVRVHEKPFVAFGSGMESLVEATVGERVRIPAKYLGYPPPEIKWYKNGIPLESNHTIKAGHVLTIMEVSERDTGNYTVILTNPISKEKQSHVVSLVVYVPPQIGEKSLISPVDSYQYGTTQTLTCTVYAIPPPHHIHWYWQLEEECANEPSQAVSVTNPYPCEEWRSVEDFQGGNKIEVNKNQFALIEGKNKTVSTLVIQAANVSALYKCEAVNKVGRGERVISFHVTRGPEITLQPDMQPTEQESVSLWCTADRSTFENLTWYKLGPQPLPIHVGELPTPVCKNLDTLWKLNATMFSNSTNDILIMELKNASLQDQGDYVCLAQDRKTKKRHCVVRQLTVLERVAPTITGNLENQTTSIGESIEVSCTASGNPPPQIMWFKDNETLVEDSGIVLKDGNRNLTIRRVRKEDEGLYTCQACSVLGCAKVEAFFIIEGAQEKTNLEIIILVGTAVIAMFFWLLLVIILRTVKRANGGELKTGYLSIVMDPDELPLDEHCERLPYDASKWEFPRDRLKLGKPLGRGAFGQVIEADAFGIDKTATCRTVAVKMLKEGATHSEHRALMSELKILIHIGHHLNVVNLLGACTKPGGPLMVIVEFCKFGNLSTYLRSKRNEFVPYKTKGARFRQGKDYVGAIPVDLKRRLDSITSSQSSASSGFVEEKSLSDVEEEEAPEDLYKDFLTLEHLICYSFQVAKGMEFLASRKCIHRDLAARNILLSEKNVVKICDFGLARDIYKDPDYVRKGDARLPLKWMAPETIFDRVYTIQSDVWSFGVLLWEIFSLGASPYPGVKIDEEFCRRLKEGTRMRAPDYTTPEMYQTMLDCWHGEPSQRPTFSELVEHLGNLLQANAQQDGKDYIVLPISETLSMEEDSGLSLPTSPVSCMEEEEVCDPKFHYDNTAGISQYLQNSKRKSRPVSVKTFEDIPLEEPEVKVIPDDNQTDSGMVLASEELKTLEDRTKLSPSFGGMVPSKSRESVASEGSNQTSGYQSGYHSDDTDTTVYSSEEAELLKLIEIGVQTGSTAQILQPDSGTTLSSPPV

T2 sequence (Q96GD4 whole entry, the tested form may be a part): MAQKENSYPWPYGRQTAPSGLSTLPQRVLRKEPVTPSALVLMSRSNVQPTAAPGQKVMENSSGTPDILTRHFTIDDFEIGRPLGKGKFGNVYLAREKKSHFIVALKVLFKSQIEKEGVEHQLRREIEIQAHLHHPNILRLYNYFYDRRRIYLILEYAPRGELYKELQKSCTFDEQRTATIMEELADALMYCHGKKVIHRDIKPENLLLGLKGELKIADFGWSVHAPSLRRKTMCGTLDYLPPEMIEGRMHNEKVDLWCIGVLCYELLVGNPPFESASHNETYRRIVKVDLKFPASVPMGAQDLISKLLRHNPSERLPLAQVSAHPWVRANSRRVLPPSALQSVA
T2 sequence (Q9NQS7 826-918 partner limits assumed): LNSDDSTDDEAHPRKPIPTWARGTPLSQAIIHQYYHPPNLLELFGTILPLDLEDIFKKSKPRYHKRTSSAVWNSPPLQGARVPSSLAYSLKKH

On to `CCn1cc(Nc2ncc(F)c(N[C@@H]3[C@H]4CC[C@H](C4)[C@@H]3C(N)=O)n2)cn1.CCn1cc(Nc2ncc(F)c(N[C@H]3[C@@H]4CC[C@@H](C4)[C@H]3C(N)=O)n2)cn1` (mixture of isomers) [Example 13, (1R,2S,3R,4S)-3-({2-[(1-ethyl-1H-pyrazol-4-yl)amino]-5-fluoropyrimidin-4-yl}amino)bicyclo[2.2.1]heptane-2-carboxamide and (1S,2R,3S,4R)-3-({2-[(1-ethyl-1H-pyrazol-4-yl)amino]-5-fluoropyrimidin-4-yl}amino)bicyclo[2.2.1]heptane-2-carboxamide], for which the values for the pKi at Aurora A, at Aurora B and at KDR [1] were more than 7.00, more than 7.00 and 6.00 to 7.00, respectively. Moreover, the “EC15 (concentration of inhibitor necessary to induce polyploidy in 15% of cells)” value in the experiment on NCI-H1299 cells was “B (“B” represents an EC15 of between 0.1 μM and 1 μM)”.

Consider `Cn1cc(Nc2nccc(NC3C4C=CC(C4)C3C(N)=O)n2)cn1` (mixture of isomers) [Example 2, (1S,2S,3R,4R)-3-({2-[(1-methyl-1H-pyrazol-4-yl)amino]pyrimidin-4-yl}amino)bicyclo[2.2.1]hept-5-ene-2-carboxamide and (1R,2R,3S,4S)-3-({2-[(1-methyl-1H-pyrazol-4-yl)amino]pyrimidin-4-yl}amino)bicyclo[2.2.1]hept-5-ene-2-carboxamide], for which the negative logarithm of the Ki (pKi) on Aurora A is 5.30 to 6.00; on Aurora B, 6.00 to 7.00; at KDR [1] it was less than 5.30. Further, the EC15 in the experiment on NCI-H1299 cells (Homo sapiens, read-out: EC15 (concentration of inhibitor necessary to induce polyploidy in 15% of cells)) is less than 100 nM.

Turning to `Cc1cnc(Nc2cnn(CCO)c2)nc1N[C@@H]1[C@H](C(N)=O)[C@H]2C=C[C@@H]1C2.Cc1cnc(Nc2cnn(CCO)c2)nc1N[C@H]1[C@@H](C(N)=O)[C@@H]2C=C[C@H]1C2` (mixture of isomers) [Example 18, (1S,2S,3R,4R)-3-[(2-{[1-(2-hydroxyethyl)-1H-pyrazol-4-yl]amino}-5-methylpyrimidin-4-yl)amino]bicyclo[2.2.1]hept-5-ene-2-carboxamide and (1R,2R,3S,4S)-3-[(2-{[1-(2-hydroxyethyl)-1H-pyrazol-4-yl]amino}-5-methylpyrimidin-4-yl)amino]bicyclo[2.2.1]hept-5-ene-2-carboxamide], the pKi on Aurora A, on Aurora B and on KDR [1] was 6.00 to 7.00 throughout. Further, the “EC15 (concentration of inhibitor necessary to induce polyploidy in 15% of cells)” value in the experiment with NCI-H1299 cells is “A (“A” represents an EC15 of less than 0.1 μM)”.

Regarding `Cn1cc(Nc2ncc(C(F)(F)F)c(N[C@@H]3C[C@H]4CC[C@@H]3C4)n2)cn1.Cn1cc(Nc2ncc(C(F)(F)F)c(N[C@H]3C[C@@H]4CC[C@H]3C4)n2)cn1` (mixture of isomers) [Example 23, N^4-[(1S,2S,4R)-bicyclo[2.2.1]hept-2-yl]-N^2-(1-methyl-1H-pyrazol-4-yl)-5-(trifluoromethyl)pyrimidine-2,4-diamine and N^4-[(1R,2R,4S)-bicyclo[2.2.1]hept-2-yl]-N^2-(1-methyl-1H-pyrazol-4-yl)-5-(trifluoromethyl)pyrimidine-2,4-diamine], the pKi at Aurora A is 6.00 to 7.00; at Aurora B, more than 7.00; at KDR [1], 6.00 to 7.00. Further, the “EC15 (concentration of inhibitor necessary to induce polyploidy in 15% of cells)” value with NCI-H1299 cells was “B (“B” represents an EC15 of between 0.1 μM and 1 μM)”.

In the case of `NC(=O)[C@@H]1[C@H](Nc2nc(Nc3cn[nH]c3)ncc2F)[C@H]2C=C[C@@H]1C2.NC(=O)[C@H]1[C@@H](Nc2nc(Nc3cn[nH]c3)ncc2F)[C@@H]2C=C[C@H]1C2` (mixture of isomers) [Example 5, (1S,2S,3R,4R)-3-{[5-fluoro-2-(1H-pyrazol-4-ylamino)pyrimidin-4-yl]amino}bicyclo[2.2.1]hept-5-ene-2-carboxamide and (1R,2R,3S,4S)-3-{[5-fluoro-2-(1H-pyrazol-4-ylamino)pyrimidin-4-yl]amino}bicyclo[2.2.1]hept-5-ene-2-carboxamide], the pKi on Aurora A was 6.00 to 7.00; at Aurora B, more than 7.00; on KDR [1], 6.00 to 7.00. The “EC15 (concentration of inhibitor necessary to induce polyploidy in 15% of cells)” value in the experiment with NCI-H1299 cells was “B (“B” represents an EC15 of between 0.1 μM and 1 μM)”.

Turning to `Cc1cnc(Nc2cnn(C)c2)nc1N[C@@H]1[C@H](C(N)=O)[C@H]2C=C[C@@H]1C2.Cc1cnc(Nc2cnn(C)c2)nc1N[C@H]1[C@@H](C(N)=O)[C@@H]2C=C[C@H]1C2` (mixture of isomers) [Example 17, (1S,2S,3R,4R)-3-({5-methyl-2-[(1-methyl-1H-pyrazol-4-yl)amino]pyrimidin-4-yl}amino)bicyclo[2.2.1]hept-5-ene-2-carboxamide and (1R,2R,3S,4S)-3-({5-methyl-2-[(1-methyl-1H-pyrazol-4-yl)amino]pyrimidin-4-yl}amino)bicyclo[2.2.1]hept-5-ene-2-carboxamide], the pKi at Aurora A was 6.00 to 7.00; on Aurora B it was more than 7.00; on KDR [1], 6.00 to 7.00. Besides, in the experiment on NCI-H1299 cells, the “EC15 (concentration of inhibitor necessary to induce polyploidy in 15% of cells)” value is listed as “A (“A” represents an EC15 of less than 0.1 μM)”.

Consider `Cc1c(Nc2ncc(Br)c(N[C@H]3[C@@H](C(N)=O)C[C@H]4C[C@@H]3C4(C)C)n2)cnn1C` [Example 185, (1R,2R,3S,5R)-2-({5-bromo-2-[(1,5-dimethyl-1H-pyrazol-4-yl)amino]pyrimidin-4-yl}amino)-6,6-dimethylbicyclo[3.1.1]heptane-3-carboxamide], for which the pKi on Aurora A, at Aurora B and on KDR [1] was more than 7.00 throughout. The pIC50 at KDR [2] is 6.00 to 7.00.

As to `CC1(C)[C@H]2C[C@H](C(N)=O)[C@H](Nc3nc(Nc4cnn(C5CCNCC5)c4)ncc3Cl)[C@@H]1C2` [Example 191, (1R,2R,3S,5R)-2-[(5-chloro-2-{[1-(piperidin-4-yl)-1H-pyrazol-4-yl]amino}pyrimidin-4-yl)amino]-6,6-dimethylbicyclo[3.1.1]heptane-3-carboxamide], the pKi at Aurora A, on Aurora B and on KDR [1] was more than 7.00 each time. Besides, on KDR [2], the pIC50 is 6.00 to 7.00.

Regarding `Cn1cc(Nc2ncc(Cl)c(N[C@@H]3CCCC[C@@H]3C(N)=O)n2)cn1.Cn1cc(Nc2ncc(Cl)c(N[C@H]3CCCC[C@H]3C(N)=O)n2)cn1` (mixture of isomers) [Example 147, (1S,2R)-2-({5-chloro-2-[(1-methyl-1H-pyrazol-4-yl)amino]pyrimidin-4-yl}amino)cyclohexanecarboxamide and (1R,2S)-2-({5-chloro-2-[(1-methyl-1H-pyrazol-4-yl)amino]pyrimidin-4-yl}amino)cyclohexanecarboxamide], the pKi on Aurora A, at Aurora B and at KDR [1] was more than 7.00 in each case. The pIC50 at KDR [2] was 6.00 to 7.00.

As to `Cn1cc(Nc2ncc(C(N)=O)c(NC3C4C=CC(C4)C3C(N)=O)n2)cn1` (mixture of isomers) [Example 86, 4-{[(1S,2S,3R,4R)-3-carbamoylbicyclo[2.2.1]hept-5-ene-2-yl]amino}-2-[(1-methyl-1H-pyrazol-4-yl)amino]pyrimidine-5-carboxamide and 4-{[(1R,2R,3S,4S)-3-carbamoylbicyclo[2.2.1]hept-5-ene-2-yl]amino}-2-[(1-methyl-1H-pyrazol-4-yl)amino]pyrimidine-5-carboxamide], the pKi at Aurora A was more than 7.00; at Aurora B, more than 7.00; at KDR [1], 6.00 to 7.00. In addition, the pIC50 at KDR [2] is 6.00 to 7.00.

What is called pKi is the negative decadic logarithm of the Ki, by convention in mol/L. In general, pIC50 refers to the negative decadic logarithm of the IC50, by convention in mol/L.
